# From US7238689B2, “Isoxazoline derivative and herbicide comprising the same as active ingredient” (Ihara Chemical Industry Co., Ltd., priority 2001, dated 2007)
# Test system: Setaria viridis (L.) Beauv.
# Assay: Herbicidal effect by upland field soil treatment
# Assay type: in vivo
# Parameters: scale not given here
# Conditions: active ingredient 1000 g/ha, examined at 21st day from treatment
# Description: (§1) An upland field soil was filled in a plastic pot of 80 cm^2. Seeds of Echinochloa crus-galli (L.) Beauv. var. crusgalli and Setaria viridis (L.) Beauv. were sowed, followed by covering with the same soil. […] Then, breeding was made in a greenhouse, and the herbicidal effect of each wettable powder was examined at the 21st day from the treatment in accordance with the standard shown in Table 21.
row,Compound,"herbicidal effect (index per standard of Table 21), Setaria viridis (L.) Beauv."
1,CC1(C)CC(S(=O)(=O)Cc2ccco2)=NO1 [1-0006],4
2,Cn1nc(C(F)(F)F)c(CS(=O)(=O)C2=NOC(C)(C)C2)c1Oc1ccc(Cl)cc1 [3-0063],5

# Test system: Echinochloa crus-galli (L.) Beauv. var. crusgalli
# Assay: Herbicidal effect by upland field soil treatment
# Assay type: in vivo
# Parameters: scale not given here
# Conditions: active ingredient 1000 g/ha, examined at 21st day from treatment
# Description: as §1
row,Compound,"herbicidal effect (index per standard of Table 21), Echinochloa curs-galli (L.) Beauv. Var. crus-galli"
1,CC1(C)CC(S(=O)(=O)Cc2ccco2)=NO1 [1-0006],5
2,Cn1nc(C(F)(F)F)c(CS(=O)(=O)C2=NOC(C)(C)C2)c1Oc1ccc(Cl)cc1 [3-0063],5

# Test system: Monochoria vaginalis (Murm. f.) Presl var. plantaginea (Roxb.) Solms-Laub.
# Assay: Herbicidal effect by paddy field soil treatment
# Assay type: in vivo
# Parameters: scale not given here
# Conditions: wettable powder, active ingredient 1000 g/ha, examined at the 21st day from the treatment
# Experimental: (§2) A paddy field soil was filled in a plastic pot of 100 cm^2 and subjected to puddling. Then, seeds of Echinochloa oryzicola Vasing and Monochoria vaginalis (Murm. f.) Presl var. plantaginea (Roxb.) Solms-Laub. were sowed and water was filled in a depth of 3 cm. Next day, wettable powders produced in accordance with the Formulation 1 were diluted with water and dropped on the water surface. The application amount of each wettable powder was 1,000 g per 1 hectare in terms of the active ingredient. Then, breeding was made in a greenhouse, and the herbicidal effect of each wettable powder was examined at the 21st day from the treatment in accordance with the standard shown in Table 21.
row,Compound,"Herbicidal effect index, Monochoria vaginalis (Burm. F.) Presl var. plantaginea (Roxb.) Solms-Laub."
1,CC(C)C(SC1=NOC(C)(C)C1)c1cncnc1C(F)(F)F (racemic) [8-0012],5
2,Cn1nc(C(F)(F)F)c(CS(=O)(=O)C2=NOC(C)(C)C2)c1OCC1CCCC1 [3-0051],5
3,CC(=O)n1nc(C(F)(F)F)c(CS(=O)(=O)C2=NOC(C)(C)C2)c1Cl [3-0177],5
4,CC1(C)CC(S(=O)(=O)Cc2c(C(F)(F)F)nn(-c3ccccc3)c2OC(F)F)=NO1 [3-0160],5
5,CC1(C)CC(S(=O)(=O)Cc2csc3ccc(Cl)cc23)=NO1 [10-0008],5
6,CC1(C)CC(S(=O)(=O)Cc2c(Cl)nn(CC3CCCC3)c2C(F)(F)F)=NO1 [3-0101],5
7,CC1(C)CC(S(=O)(=O)Cc2c(C(F)(F)F)nn(S(=O)(=O)c3ccccc3)c2Cl)=NO1 [3-0176],5
8,CC1(C)CC(S(=O)(=O)Cc2ccncc2)=NO1 [9-0003],5
9,CC1(C)CC(S(=O)(=O)Cc2sc3ccccc3c2Br)=NO1 [10-0011],5
10,CC1(C)CC(S(=O)(=O)Cc2c(C(F)(F)F)nn(CC3CCCCC3)c2Cl)=NO1 [3-0102],5
11,CC1(C)CC(S(=O)(=O)Cc2cc3ccccc3s2)=NO1 [10-0002],4
12,CC1(C)CC(S(=O)(=O)Cc2c(C(F)(F)F)nn(C3CCCC3)c2Cl)=NO1 [3-0089],5
13,CC1(C)CC(S(=O)(=O)Cc2c(Cl)nn(C3CCCC3)c2C(F)(F)F)=NO1 [3-0090],5
14,CC1(C)CC(S(=O)(=O)Cc2c(Cl)nn(CC3CCCCC3)c2C(F)(F)F)=NO1 [3-0103],5
15,CC1(C)CC(S(=O)(=O)Cc2c(C(F)(F)F)nn(CC3CCCC3)c2Cl)=NO1 [3-0100],5
16,CC1(C)CC(S(=O)(=O)Cc2c(C(F)(F)F)nn(C(=O)c3ccccc3)c2Cl)=NO1 [3-0178],5
17,Cn1nc(C(F)(F)F)c(CS(=O)(=O)C2=NOC(C)(C)C2)c1Oc1cccc(Cl)c1 [3-0061],5

# Test system: Echinochloa oryzicola Vasing
# Assay: Herbicidal effect by paddy field soil treatment
# Assay type: in vivo
# Parameters: scale not given here
# Conditions: wettable powder, active ingredient 1000 g/ha, examined at the 21st day from the treatment
# Experimental: as §2
row,Compound,"Herbicidal effect index, Echinochloa oryzicola Vasing"
1,CC(C)C(SC1=NOC(C)(C)C1)c1cncnc1C(F)(F)F (racemic) [8-0012],5
2,Cn1nc(C(F)(F)F)c(CS(=O)(=O)C2=NOC(C)(C)C2)c1OCC1CCCC1 [3-0051],5
3,CC(=O)n1nc(C(F)(F)F)c(CS(=O)(=O)C2=NOC(C)(C)C2)c1Cl [3-0177],5
4,CC1(C)CC(S(=O)(=O)Cc2c(C(F)(F)F)nn(-c3ccccc3)c2OC(F)F)=NO1 [3-0160],5
5,CC1(C)CC(S(=O)(=O)Cc2csc3ccc(Cl)cc23)=NO1 [10-0008],5
6,CC1(C)CC(S(=O)(=O)Cc2c(Cl)nn(CC3CCCC3)c2C(F)(F)F)=NO1 [3-0101],5
7,CC1(C)CC(S(=O)(=O)Cc2c(C(F)(F)F)nn(S(=O)(=O)c3ccccc3)c2Cl)=NO1 [3-0176],5
8,CC1(C)CC(S(=O)(=O)Cc2ccncc2)=NO1 [9-0003],5
9,CC1(C)CC(S(=O)(=O)Cc2sc3ccccc3c2Br)=NO1 [10-0011],5
10,CC1(C)CC(S(=O)(=O)Cc2c(C(F)(F)F)nn(CC3CCCCC3)c2Cl)=NO1 [3-0102],5
11,CC1(C)CC(S(=O)(=O)Cc2cc3ccccc3s2)=NO1 [10-0002],5
12,CC1(C)CC(S(=O)(=O)Cc2c(C(F)(F)F)nn(C3CCCC3)c2Cl)=NO1 [3-0089],5
13,CC1(C)CC(S(=O)(=O)Cc2c(Cl)nn(C3CCCC3)c2C(F)(F)F)=NO1 [3-0090],5
14,CC1(C)CC(S(=O)(=O)Cc2c(Cl)nn(CC3CCCCC3)c2C(F)(F)F)=NO1 [3-0103],5
15,CC1(C)CC(S(=O)(=O)Cc2c(C(F)(F)F)nn(CC3CCCC3)c2Cl)=NO1 [3-0100],5
16,CC1(C)CC(S(=O)(=O)Cc2c(C(F)(F)F)nn(C(=O)c3ccccc3)c2Cl)=NO1 [3-0178],5
17,Cn1nc(C(F)(F)F)c(CS(=O)(=O)C2=NOC(C)(C)C2)c1Oc1cccc(Cl)c1 [3-0061],5
